Literature values as cited in patent publication US20060183185A1, “Method for the synthesis of astaxanthin” (priority 2004, published 2006).

Details: liposome systems; appropriate dose

CC1=C(/C=C/C(C)=C/C=C/C(C)=C/C=C/C=C(C)/C=C/C=C(C)/C=C/C2=C(C)C(=O)C(O)CC2(C)C)C(C)(C)CC(O)C1=O (stereo not shown) [astaxanthin]
suppression of the peroxyl radical chain reaction: completely suppress
